Measured values reported in article PMC6423038, “Deferiprone: Pan-selective Histone Lysine Demethylase Inhibition Activity and Structure Activity Relationship Study” (Scientific Reports, 2019).

Legend:
KDM5C (Jarid1C) = KDM5C (Jarid1C) (Homo sapiens, UniProt P41229); test: KDM cell-free assay (AlphaScreen, BPS Bioscience)
KDM4D (JMJD2D) = KDM4D (JMJD2D) (Homo sapiens, UniProt Q6B0I6); test: KDM cell-free assay (AlphaScreen, BPS Bioscience)
KDM6B (JMJD3) = KDM6B (JMJD3) (Homo sapiens, UniProt O15054); test: KDM cell-free assay (AlphaScreen, BPS Bioscience)
Chain of KDM6B (JMJD3) (O15054 whole entry): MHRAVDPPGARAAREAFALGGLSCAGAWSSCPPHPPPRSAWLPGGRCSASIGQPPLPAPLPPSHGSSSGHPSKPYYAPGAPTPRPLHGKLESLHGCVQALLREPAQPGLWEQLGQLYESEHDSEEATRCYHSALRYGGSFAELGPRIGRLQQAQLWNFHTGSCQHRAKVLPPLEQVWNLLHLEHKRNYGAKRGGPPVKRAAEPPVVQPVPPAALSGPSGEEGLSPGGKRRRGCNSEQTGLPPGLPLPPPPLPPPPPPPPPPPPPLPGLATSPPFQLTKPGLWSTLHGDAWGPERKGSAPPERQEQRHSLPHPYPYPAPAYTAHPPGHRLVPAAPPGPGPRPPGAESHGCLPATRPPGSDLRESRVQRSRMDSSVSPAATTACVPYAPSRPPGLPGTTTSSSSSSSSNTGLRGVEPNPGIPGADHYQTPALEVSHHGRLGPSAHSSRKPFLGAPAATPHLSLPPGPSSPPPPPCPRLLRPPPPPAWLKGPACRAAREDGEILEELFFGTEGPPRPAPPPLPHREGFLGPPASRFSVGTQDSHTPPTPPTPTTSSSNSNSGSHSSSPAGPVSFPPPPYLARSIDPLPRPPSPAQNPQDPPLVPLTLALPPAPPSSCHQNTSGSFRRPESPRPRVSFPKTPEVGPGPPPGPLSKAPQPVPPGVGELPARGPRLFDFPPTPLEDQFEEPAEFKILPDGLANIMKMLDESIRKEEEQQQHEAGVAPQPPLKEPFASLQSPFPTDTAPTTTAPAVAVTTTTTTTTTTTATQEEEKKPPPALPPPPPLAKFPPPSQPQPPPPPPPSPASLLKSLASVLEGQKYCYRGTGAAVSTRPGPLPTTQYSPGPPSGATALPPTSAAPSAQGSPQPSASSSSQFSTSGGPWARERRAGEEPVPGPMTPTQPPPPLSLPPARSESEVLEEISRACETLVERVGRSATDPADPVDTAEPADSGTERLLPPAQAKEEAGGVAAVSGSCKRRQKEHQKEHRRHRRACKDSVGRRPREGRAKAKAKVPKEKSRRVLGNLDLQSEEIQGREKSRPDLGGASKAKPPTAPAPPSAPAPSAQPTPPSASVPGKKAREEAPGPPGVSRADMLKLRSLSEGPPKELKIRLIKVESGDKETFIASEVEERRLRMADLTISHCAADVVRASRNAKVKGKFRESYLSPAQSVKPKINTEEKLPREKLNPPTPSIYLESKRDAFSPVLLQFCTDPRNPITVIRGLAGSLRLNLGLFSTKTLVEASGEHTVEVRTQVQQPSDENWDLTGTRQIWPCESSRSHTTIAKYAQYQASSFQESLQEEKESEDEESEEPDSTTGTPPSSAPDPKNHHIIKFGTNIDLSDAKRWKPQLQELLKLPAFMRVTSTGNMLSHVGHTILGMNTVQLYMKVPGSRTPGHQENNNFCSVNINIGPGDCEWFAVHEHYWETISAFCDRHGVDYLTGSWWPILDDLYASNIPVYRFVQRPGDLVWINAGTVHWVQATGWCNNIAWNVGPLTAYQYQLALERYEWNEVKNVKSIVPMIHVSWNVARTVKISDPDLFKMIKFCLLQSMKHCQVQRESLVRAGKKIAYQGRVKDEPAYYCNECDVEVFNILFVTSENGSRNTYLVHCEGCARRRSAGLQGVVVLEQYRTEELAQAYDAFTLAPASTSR

KDM4B (JMJD2B) = KDM4B (JMJD2B) (Homo sapiens, UniProt O94953); test: KDM cell-free assay (AlphaScreen, BPS Bioscience)
KDM7B (PHF8) = KDM7B (PHF8) (Homo sapiens, UniProt Q9UPP1); test: KDM cell-free assay (AlphaScreen, BPS Bioscience)
Chain of KDM7B (PHF8) (Q9UPP1 whole entry): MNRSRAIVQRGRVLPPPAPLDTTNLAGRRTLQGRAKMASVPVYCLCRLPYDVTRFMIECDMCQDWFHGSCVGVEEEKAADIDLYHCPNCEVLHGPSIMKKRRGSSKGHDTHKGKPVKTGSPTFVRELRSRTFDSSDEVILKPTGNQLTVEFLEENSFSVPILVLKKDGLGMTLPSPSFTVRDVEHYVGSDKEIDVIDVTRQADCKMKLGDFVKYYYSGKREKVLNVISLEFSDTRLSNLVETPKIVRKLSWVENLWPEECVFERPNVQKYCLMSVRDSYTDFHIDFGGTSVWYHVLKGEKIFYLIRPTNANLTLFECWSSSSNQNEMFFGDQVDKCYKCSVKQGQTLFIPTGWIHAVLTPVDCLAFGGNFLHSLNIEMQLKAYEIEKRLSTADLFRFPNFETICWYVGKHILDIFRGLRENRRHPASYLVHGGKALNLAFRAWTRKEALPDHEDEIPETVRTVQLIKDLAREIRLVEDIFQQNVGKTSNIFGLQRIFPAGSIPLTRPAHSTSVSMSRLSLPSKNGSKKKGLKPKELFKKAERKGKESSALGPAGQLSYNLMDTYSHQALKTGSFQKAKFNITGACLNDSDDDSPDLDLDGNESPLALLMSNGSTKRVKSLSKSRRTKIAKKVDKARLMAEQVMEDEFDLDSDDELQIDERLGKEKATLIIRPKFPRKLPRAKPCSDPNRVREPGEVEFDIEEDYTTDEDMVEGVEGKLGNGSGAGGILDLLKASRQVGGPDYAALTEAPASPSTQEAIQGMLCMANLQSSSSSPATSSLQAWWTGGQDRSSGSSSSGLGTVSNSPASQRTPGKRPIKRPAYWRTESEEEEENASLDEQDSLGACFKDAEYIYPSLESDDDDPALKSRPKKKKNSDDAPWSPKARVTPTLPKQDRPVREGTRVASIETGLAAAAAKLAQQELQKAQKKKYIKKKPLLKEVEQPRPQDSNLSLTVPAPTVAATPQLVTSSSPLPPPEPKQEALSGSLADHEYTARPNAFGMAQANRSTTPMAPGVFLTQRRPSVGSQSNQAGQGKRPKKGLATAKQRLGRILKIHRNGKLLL

[1] = tested on: HP1-mediated heterochromatin gene repression in CiA:Oct4 embryonic stem cells; test: HP1-recruitment assay dose curve (CiA:Oct4, with CIP-rapamycin), flow cytometry; format: cell-based, mouse; details: 48 h with CIP-rapamycin recruitment of HP1; up to 10 µM
Excerpt: To elucidate the effect of DFP-based KDM inhibitors on chromatin dynamics, we profiled them in an intracellular assay which measures heterochromatin formation speed. The chromatin in vivo assay (CiA) leverages chemical induced proximity (CIP) to recruit heterochromatin protein 1 (HP1) to a modified Oct4 locus. This reporter system is composed of tandem arrays of Gal4 and zinc finger DNA binding domains in the promoter of one allele of Oct4, where the gene was replaced by a nuclear eGFP reporter. Protein fusions of Gal4-FKBP and FRB-HP1 allow for direct chemical recruitment of HP1 to the CiA:Oct4 reporter locus upon addition of the chemical inducer of proximity (CIP)-rapamycin. After CIP-rapamycin addition, HP1 is recruited to the reporter locus and brings histone methyltransferase enzymes to the chromatin reporter resulting in the repressive H3K9me3 mark being deposited (Fig. 10A). H3K9me3 deposition is the signature mark of heterochromatin and is coupled with gene silencing and loss of GFP expression (Fig. 10B)[33]. Others have shown that H3K4me3 marked nucleosomes impede H3K9 methyltransferase activity. Thus, we postulate that the active H3K4me3 mark must be removed by KDM enzymes as part of the transformation from euchromatin to heterochromatin. Inhibition of KDMs, specifically those targeting H3K4me3, would result in a decrease in H3K9me3 accumulation, which would be measured in our assay as an increase in GFP positive cells.
To determine the effect of DFP-based KDM inhibitors on HP1-mediated gene repression, we treated CiA:Oct4 embryonic stem (ES) cells with doses of representative compounds ranging from 10 µM–250 nM for 48 h with CIP-rapamycin recruitment of HP1 (Fig. 10C). […] The percentage of GFP(+) cells was determined by flow cytometry as indicated in representative histograms (Supplemental Fig. S8).
Day 0, CiA:Oct4 N118/163 cells were grown in ES media and seeded at a density of 10,000 cells per well in 100 μL media (100,000 cells mL^−1) on gelatin coated 96 well plates. Day 1, culture media was aspirated and replaced with 100 µL ES media containing +/− 6 nM rapamycin. 10 µM, 5 µM, 2.5 µM, 1 µM, 500 nM, and 250 nM concentrations of compound or DMSO were added using a TTP Labtech Mosquito HTS liquid handler. Days 2, fresh ES media +/− rapamycin and compound were added as in Day 1. Day 3, cells were washed with PBS and trypsinized using 0.25% trypsin-EDTA. Trypsin was quenched with serum. Cells were resuspended by pipetting in preparation for flow cytometry analysis.
Flow cytometry data was acquired using the Intellicyt iQue Screener and analyzed with FlowJo software.
The CiA:Oct4 recruitment system in mouse embryonic stem cells contains Gal4 and Zinc finger DNA binding arrays and a downstream nuclear eGFP gene in place of a single Oct4 allele as previously described.^30 The CiA:Oct4 N118/N163 cell line containing viral integrations of N118 and N163 plasmids (N118- nLV EF-1α-Gal-FKBPx1-HA-PGK-Blast, N163- nLV EF-1α-HP1α (CS)-Frbx2(Frb+FrbWobb)-V5-PGK-Puro) was used for inhibition of HP1-mediated heterochromatin studies. All plasmids are freely available on addgene.
HP1-Recruitment Assay Dose Curve. Day 0, CiA:Oct4 N118/163 cells were grown in ES media and seeded at a density of 10,000 cells per well in 100 µL media (100,000 cells mL^-1) on gelatin coated 96 well plates. Day 1, culture media was aspirated and replaced with 100 µL ES media containing +/- 6 nM rapamycin. 10 µM, 5 µM, 2.5 µM, 1 µM, 500 nM, and 250 nM concentrations of compound or DMSO were added using a TTP Labtech Mosquito HTS liquid handler. Days 2, fresh ES media +/- rapamycin and compound were added as in Day 1. Day 3, cells were washed with PBS and trypsinized using 0.25% trypsin-EDTA. Trypsin was quenched with serum. Cells were resuspended by pipetting in preparation for flow cytometry analysis.
Flow Cytometry and Analysis.

KDM7A (JHDM1D) = KDM7A (JHDM1D) (Homo sapiens, UniProt Q6ZMT4); test: KDM cell-free assay (AlphaScreen, BPS Bioscience)
Chain of KDM7A (JHDM1D) (Q6ZMT4 whole entry): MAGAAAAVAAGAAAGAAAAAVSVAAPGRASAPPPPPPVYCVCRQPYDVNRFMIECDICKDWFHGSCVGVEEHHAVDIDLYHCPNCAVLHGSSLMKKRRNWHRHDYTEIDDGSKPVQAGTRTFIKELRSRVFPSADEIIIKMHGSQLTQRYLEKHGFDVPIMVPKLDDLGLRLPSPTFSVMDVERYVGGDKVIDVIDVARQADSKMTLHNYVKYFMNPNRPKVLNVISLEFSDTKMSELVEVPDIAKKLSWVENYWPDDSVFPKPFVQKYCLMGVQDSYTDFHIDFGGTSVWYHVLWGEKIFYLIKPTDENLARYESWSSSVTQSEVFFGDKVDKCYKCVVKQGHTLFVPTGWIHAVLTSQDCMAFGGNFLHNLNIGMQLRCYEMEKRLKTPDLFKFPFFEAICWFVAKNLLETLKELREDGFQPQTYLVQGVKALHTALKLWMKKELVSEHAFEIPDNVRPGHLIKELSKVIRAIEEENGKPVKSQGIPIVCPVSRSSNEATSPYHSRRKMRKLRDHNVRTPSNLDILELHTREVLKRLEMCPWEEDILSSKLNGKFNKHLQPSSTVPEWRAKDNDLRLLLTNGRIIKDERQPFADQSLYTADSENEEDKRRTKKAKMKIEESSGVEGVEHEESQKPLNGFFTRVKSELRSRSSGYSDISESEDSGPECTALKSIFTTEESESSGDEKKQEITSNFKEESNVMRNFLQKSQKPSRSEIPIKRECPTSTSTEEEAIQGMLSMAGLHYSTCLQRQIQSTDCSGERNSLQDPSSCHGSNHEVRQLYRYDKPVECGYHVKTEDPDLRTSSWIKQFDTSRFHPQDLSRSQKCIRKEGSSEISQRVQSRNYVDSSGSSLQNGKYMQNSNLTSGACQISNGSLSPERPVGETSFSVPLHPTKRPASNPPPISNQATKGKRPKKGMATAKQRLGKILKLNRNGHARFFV

KDM4C (JMJD2C) = KDM4C (JMJD2C) (Homo sapiens, UniProt Q9H3R0); test: KDM cell-free assay (AlphaScreen, BPS Bioscience)
Chain of KDM4C (JMJD2C) (Q9H3R0 whole entry): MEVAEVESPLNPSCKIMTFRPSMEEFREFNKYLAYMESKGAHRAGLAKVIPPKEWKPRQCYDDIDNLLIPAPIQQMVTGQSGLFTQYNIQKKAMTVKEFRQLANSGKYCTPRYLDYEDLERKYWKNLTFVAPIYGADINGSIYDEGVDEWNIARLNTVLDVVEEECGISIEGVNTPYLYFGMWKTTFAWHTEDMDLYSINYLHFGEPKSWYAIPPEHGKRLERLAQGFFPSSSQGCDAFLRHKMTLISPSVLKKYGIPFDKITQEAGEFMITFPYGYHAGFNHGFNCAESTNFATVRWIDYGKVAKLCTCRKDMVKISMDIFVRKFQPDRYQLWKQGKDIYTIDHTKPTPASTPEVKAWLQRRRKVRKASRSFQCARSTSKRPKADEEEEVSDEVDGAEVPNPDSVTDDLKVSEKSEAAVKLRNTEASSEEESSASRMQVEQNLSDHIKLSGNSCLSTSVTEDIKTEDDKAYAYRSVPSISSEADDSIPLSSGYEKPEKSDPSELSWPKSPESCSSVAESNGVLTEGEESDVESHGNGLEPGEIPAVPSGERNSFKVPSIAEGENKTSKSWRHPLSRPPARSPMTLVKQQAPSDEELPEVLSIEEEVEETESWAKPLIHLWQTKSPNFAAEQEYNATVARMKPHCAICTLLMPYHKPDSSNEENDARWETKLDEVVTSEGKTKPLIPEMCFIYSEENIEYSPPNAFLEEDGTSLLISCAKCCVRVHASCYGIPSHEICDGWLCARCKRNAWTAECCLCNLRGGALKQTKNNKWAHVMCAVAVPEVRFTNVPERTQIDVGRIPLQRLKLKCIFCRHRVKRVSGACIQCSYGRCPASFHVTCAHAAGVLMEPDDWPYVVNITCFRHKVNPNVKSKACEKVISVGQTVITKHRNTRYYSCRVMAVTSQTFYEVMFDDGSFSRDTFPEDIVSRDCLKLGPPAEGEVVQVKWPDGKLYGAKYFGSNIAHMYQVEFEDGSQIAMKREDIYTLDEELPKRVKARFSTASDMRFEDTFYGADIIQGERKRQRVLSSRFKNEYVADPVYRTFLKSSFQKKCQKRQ

Compound: Cc1c(O)c(=O)ccn1C [DFP, Deferiprone]
- IC50 (KDM5C (Jarid1C)): 5.6 µM
- IC50 (KDM4D (JMJD2D)): > 25 µM
- IC50 (KDM6B (JMJD3)): > 25 µM
- IC50 (KDM4B (JMJD2B)): > 25 µM
- IC50 (KDM7B (PHF8)): 15.6 µM
- inhibition of heterochromatin formation [1]: did not inhibit heterochromatin formation
- IC50 (KDM7A (JHDM1D)): 16.6 µM
- IC50 (KDM4C (JMJD2C)): > 25 µM
